Measured values from paper PMC11865978, “Cellular Activity of CQWW Nullomer-Derived Peptides” (ACS Omega, 2025).
pIC50: −log10 of the molar value.

Assays:
Assay type in all cases: cell-based, human
GCGR-E21 = settings: 72 h
Method: (§1) Peptides were tested in an automated image-based high-content[42] cell painting[43],[44] assay that was originally developed to explore the mechanism of action of pharmacological and genetic perturbations within cells,[45] as well as a live cell imaging assay against six patient-derived glioblastoma cell lines (GCGR-E13, GCGR-E28, GCGR-E21, GCGR-E57, GCGR-E31, and GCGR-E34), covering classical, mesenchymal, and proneural subtypes, respectively (see Methods and Figure 1B–D), along with a healthy human fetal neuronal stem cell line (GCGR-NS9FB_B).
(§2) Cell survival was quantified by nuclei counts from the Hoechst dye-stained nuclei and IC50 values calculated along with 95% confidence intervals (Figure 1B; see Table S2 for full details). […]
(§3) High Content Phenotypic Screening assays
(§4) Cell lines (glioma stem cell lines and normal foetal neural stem cells) were seeded on laminin (10 µg/mL) coated 384-well plates (Greiner Bio-One, 781091) at 1,000 cells/well and incubated overnight at 37 °C and 5% CO2. Aqueous peptide solutions (10 mM) were further diluted to 1 mM in water containing 10 % glycerol and 0.01 % TX-100. […]
(§5) The cells were placed in an IncuCyte live cell imager (Essen BioScience) and imaged every three hours for 72 hours. Prior to fixation, the plates were removed from the IncuCyte and stained with Mitrotracker DeepRed (Invitrogen, M22426, 300 nM, 30 minutes). Cells were then fixed using 4 % formaldehyde and permeabilized with 0.1 % TX-100 in PBS. The cells were stained with ‘Cell Painting’ […]
(§6) assay reagents1: Hoechst 33342 (10 mg/mL stock, Molecular Probes, 1:5000), SYTO14 […]
(§7) BSA/PBS. The plates were imaged using an ImageXpress high content microscope (Molecular Devices). Cells were imaged with a 20× objective, covering 6 fields-of-view in each well. The data was then analyzed using a custom CellProfiler software pipeline using the University of Edinburgh high performance computing cluster. Dose response plots were calculated using HC StratomineR (corelifeanalytics.com). Nuclei count data was analyzed separately to generate cell survival metrics (normalized to aqueous glycerol/TX -100 control). […]

GCGR-E34 = settings: 72 h
Method: as §1, §2, §3, §4, §5, §6, §7

GCGR-E13 = settings: 72 h
Method: as §1, §2, §3, §4, §5, §6, §7

[1] = test system: patient-derived glioblastoma cell lines; test: Cell survival by nuclei counts, summarised across cell lines; settings: ratio of nuclei-count IC50s
Method: as §1, §2, §3
Cell lines (glioma stem cell lines and normal foetal neural stem cells) were seeded on laminin (10 µg/mL) coated 384-well plates (Greiner Bio-One, 781091) at 1,000 cells/well and incubated overnight at 37 °C and 5% CO2. […]
as §7, with “The plates were imaged using an ImageXpress high content microscope (Molecular Devices). Cells were imaged with a 20× objective, covering 6 fields-of-view in each well.” left out

GSK-3 = test: Reverse phase protein array (RPPA); settings: peptides at 3 μM, 3 h and 24 h (peptide 7: 24 h only), seven cell lines; fold difference vs water control
Text: The phenotypic effect of the peptides was visualized by live cell imaging (Figure 1C, IncuCyte live cell imager) and also quantified via image analysis of cells labeled with the cell painting reagents (see Supporting Information) followed by image analysis using Cell Profiler (cellprofiler.org). Multiparametric outputs from Cell Profiler were processed using Phenonaut[46] [v 2.0.3] (see Jupyter notebook ‘Phenonaut_processing_of_nullomer_data.ipynb’ in the Aminonaut repository for methods and code used). […] Peptides 2, 5, and 7 were deemed to have the most merit for mode of action determination using reverse phase protein arrays (RPPAs) (see Supporting Information for methods). […]
growth and stemness was further supported by the addition of laminin extracellular matrix (Cultrex 3446-005-01, 4-10 mg/mL) to the growth media and to create pre-coated flasks/384w plates. Cells were cultured in T75 cm2 flasks and passaged as follows: Glioma stem cells generally grow slowly (~60hrs doubling time, excepting GCGR-E57 cells ~24hrs) and lag phase was exacerbated by sparse seeding. Cell confluence is generally ~80 -90% prior to passaging, whereby the culture media was aspirated, the cells washed (PBS) and Accutase solution (Sigma A6964, 1 mL) was added to detach the cells, which were then incubated at 37 °C for <5 minutes. Cells were resuspended in media and centrifuged for 3 minutes at 300 × g. Resuspended cells were typically split 1:5, 1:8 (GCGR-E57 cells) and 1:2, 1:4 for the remainder of cell lines, depending on requirements . Cells were passaged every 4-7 days to maintain health and growth and discarded after 3 months, whereupon a fresh batch of cells […]
Reverse Phase Protein Array (RPPA)
Culture media was aspirated and cells washed with wash media. Accutase solution (1mL) was used to detach the cells which were then incubated at 37 °C for 5 minutes. 10 mL of wash media was added, and the cells were pipetted into a 15 mL conical tube, after which they were centrifuged for 3 minutes at 300× g to form a pellet. Supernatant was aspirated, and cells resuspended in 5 mL of wash media. A 10 μL sample of the cell suspension was pipetted onto the reading surface of a DeNovix CellDrop automated cell counter and the reading was used to dilute the suspension in complete media to 250,000 cells/mL. 2 mL of this suspension was added to each well of 6-well plates to seed plates at 500,000 cells per well. 2 plates of each cell type (GCGR-E13, GCGR-E21, GCGR-E28, GCGR-E31, GCGR-E34, GCGR-E57 and GCGR-NS9FB_B) were seeded, one each for two nullomer dosage […]
timepoints (3 h and 24 h). The cells were incubated in the 6-well plates overnight, and dosing was carried out in the following morning. […]

H-RRRRRCQWW-NH2 [Peptide 2] gave a pIC50 (GCGR-E21) of 5.32, a pIC50 (GCGR-E34) of 5.28 and a pIC50 (GCGR-E13) of 5.36. For the same substance, the “selectivity for reduction in nuclei counts, glioblastoma stem cells compared to normal neural stem cells (GCGR-NS9FB_B)” value [1] was 1.5- to 2 fold and the “GSK-3 regulation in RPPA” value (GSK-3) was “downregulation of GSK-3β”.
